Measured values taken from US10363239B2, “Method for inhibiting growth of cancer cells” (Pain Therapeutics, Inc., priority 2013, dated 2019).
Like-named read-outs stand apart in the source and are kept apart here.

Experiments:
[1] = target: FLNA pentapeptide of SEQ ID NO: 1 (Bn-VAKGL) (Homo sapiens, UniProt P21333); assay: FITC-NLX-based FLNA screening assay (inhibition of FITC-naloxone binding to Bn-VAKGL on streptavidin plates); conditions: 10 nM FITC-NLX
mu opiate receptor (MOR) = assay: MOR agonist activity using [35S]GTPγS binding assay in striatal membranes; assay type: biochemical; conditions: for % DAMGO (0.1 μM) / % DAMGO (1 μM): relative to DAMGO; for % DAMGO + BFNA: 1 μM compound + β-FNA, relative to DAMGO + BFNA
Procedure, shortened: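 Striatal membranes (200 μg) were preincubated 5 min at 30 °C in HEPES pH 7.5 with 100 mM NaCl, 1 mM MgCl2 and 0.5 nM [35S]GTPγS, then 5 min more with 0.1–10 μM compound. Gαo was immunoprecipitated and bound radioactivity counted by scintillation.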

[2] = FLNA-binding compound 0.01 μM, read-out: Percent Binding Inhibition
[3] = FLNA-binding compound 0.1 μM, read-out: Percent Binding Inhibition
[4] = FLNA-binding compound 1 μM, read-out: Percent Binding Inhibition
[5] = Series C-2, 0.1 μM compound, [35S]GTPγS binding to Gαo, striatal membranes
[6] = Series C-2, 1 μM compound + 1 μM β-FNA
[7] = Series C-2, 1 μM compound, [35S]GTPγS binding to Gαo, striatal membranes
[8] = read-out: Percent Binding Inhibition, FLNA-binding compound 0.01 μM
[9] = read-out: Percent Binding Inhibition, FLNA-binding compound 0.1 μM
[10] = read-out: Percent Binding Inhibition, FLNA-binding compound 1 μM
[11] = Series C-1, 0.1 μM compound, [35S]GTPγS binding to Gαo, striatal membranes
[12] = Series C-1, 1 μM compound + 1 μM β-FNA
[13] = Series C-1, 1 μM compound, [35S]GTPγS binding to Gαo, striatal membranes

| Structure (SMILES) | inhibition at 0.01 µM [1, 2] [%] | inhibition at 0.1 µM [1, 3] [%] | inhibition at 1 µM [1, 4] [%] | % DAMGO (0.1 μM) (mu opiate receptor (MOR); Series C-2, 0.1 μM compound) [%] | MOR agonist activity, percent [35S]GTPγS binding at the stated compound concentration (mu opiate receptor (MOR); [5]) [%] | MOR agonist activity, percent [35S]GTPγS binding at the stated compound concentration (mu opiate receptor (MOR); [6]) [%] | % DAMGO + BFNA (mu opiate receptor (MOR); Series C-2) [%] | % DAMGO (1 μM) (mu opiate receptor (MOR); Series C-2, 1 μM compound) [%] | MOR agonist activity, percent [35S]GTPγS binding at the stated compound concentration (mu opiate receptor (MOR); [7]) [%] | inhibition at 0.01 µM [1, 8] [%] | inhibition at 0.1 µM [1, 9] [%] | inhibition at 1 µM [1, 10] [%] | % DAMGO (0.1 μM) (mu opiate receptor (MOR); Series C-1, 0.1 μM compound) [%] | Concentration of FLNA-Binding Compound as Agonist 0.1 μM (mu opiate receptor (MOR); [11]) [%] | Concentration of FLNA-Binding Compound as Agonist 1 μM + BFNA (mu opiate receptor (MOR); [12]) [%] | % DAMGO + BFNA (mu opiate receptor (MOR); Series C-1) [%] | % DAMGO (1 μM) (mu opiate receptor (MOR); Series C-1, 1 μM compound) [%] | Concentration of FLNA-Binding Compound as Agonist 1 μM (mu opiate receptor (MOR); [13]) [%] | other results |
| --- | --- | --- | --- | --- | --- | --- | --- | --- | --- | --- | --- | --- | --- | --- | --- | --- | --- | --- | --- |
| CS(=O)(=O)c1ccc(S(=O)(=O)N2CCOC23CCN(CC2CC2)CC3)cc1 [Compound C0126M] | 50.7 | 55.4 | 67.3 | 108.5 | 181.8 | 108.5 | 228.4 | 119.3 | 265.3 |  |  |  |  |  |  |  |  |  |  |
| CC(=O)c1ccc(S(=O)(=O)N2CC(CN(C)C)OC23CCN(CC2CC2)CC3)cc1 (stereo not drawn) [Compound C0128M] | 46.5 | 54.4 | 58.2 | 104.5 | 197.8 | 63.9 | 131.8 | 115.2 | 286.0 |  |  |  |  |  |  |  |  |  |  |
| COc1ccc(S(=O)(=O)N2CCOC23CCN(C(C)C)CC3)cc1 [Compound C0133M] | 47.8 | 54.9 | 58.5 | 83.2 | 139.4 | 72.4 | 152.4 | 96.6 | 214.8 |  |  |  |  |  |  |  |  |  |  |
| CCc1ccc(S(=O)(=O)N2CCOC23CCN(CC2CC2)CC3)cc1 [Compound C0135M] |  |  |  | 85.3 | 161.3 | 113.3 | 233.6 | 124.9 | 310.1 | 53.9 | 55.1 | 62.3 |  |  |  |  |  |  |  |
| O=S(=O)(c1ccc2ccccc2c1)N1CCC2(CC1)OCCN2S(=O)(=O)c1ccc2ccccc2c1 [Compound C0140M] |  |  |  |  |  |  |  |  |  | 42.3 | 49.2 | 54.4 | 85.8 | 126.1 | 83.0 | 211.2 | 106.5 | 215.4 |  |
| O=S(=O)(c1cccs1)N1CCC2(CC1)OCCN2S(=O)(=O)c1cccs1 [Compound C0141M] |  |  |  |  |  |  |  |  |  | 33.1 | 39 | 46.9 | 109.9 | 161.5 | 47.9 | 121.9 | 105.8 | 213.9 |  |
| COc1ccc(S(=O)(=O)N2CCC3(CC2)NCCC(=O)N3)cc1 [Compound C0142M] |  |  |  | 97.8 | 143.7 | 98.7 | 251.1 | 95.2 | 192.5 | 35.1 | 39.4 | 56 |  |  |  |  |  |  |  |
| O=S(=O)(c1cccc2cccnc12)N1CCC2(CC1)OCCN2S(=O)(=O)c1cccc2cccnc12 [Compound C0143M] |  |  |  | 47.1 |  |  | 94.7 | 59.3 |  | 45.3 | 48.4 | 57.8 | 47.1 | 81.0 | 86.5 | 94.7 | 59.3 | 193.3 | Concentration of FLNA-Binding Compound as Agonist 0.1 μM (mu opiate receptor (MOR); [5]): 81.0%; Concentration of FLNA-Binding Compound as Agonist 1 μM + BFNA (mu opiate receptor (MOR); [6]): 86.5%; Concentration of FLNA-Binding Compound as Agonist 1 μM (mu opiate receptor (MOR); [7]): 193.3% |
| COc1ccc(S(=O)(=O)N2CCC3(OCCN3S(=O)(=O)c3ccc(OC)cc3)C3CCCCC32)cc1 (stereo not drawn) [Compound C0144M] | 46.4 | 50.7 | 55.7 |  |  |  |  |  |  |  |  |  | 108.3 | 186.3 | 125.9 | 137.9 | 90.8 | 295.9 |  |
| COc1ccc(S(=O)(=O)N2CCCC3(C2)OCCN3S(=O)(=O)c2ccc(OC)cc2)cc1 (stereo not drawn) [Compound C0145M] | 45.1 | 53.7 | 58.3 |  |  |  |  |  |  |  |  |  | 112.2 | 193.0 | 87.0 | 95.3 | 88.7 | 289.2 |  |
| O=S(=O)(c1ccc(Oc2ccccc2)cc1)N1CCC2(CC1)OCCN2S(=O)(=O)c1ccc(Oc2ccccc2)cc1 [Compound C0149M] |  |  |  |  |  |  |  |  |  | 48.5 | 52.3 | 62 | 122.0 | 209.8 | 93.4 | 102.3 | 124.8 | 406.7 |  |
| O=S(=O)(c1csc2ccccc12)N1CCC2(CC1)OCCN2S(=O)(=O)c1csc2ccccc12 [Compound C0150M] |  |  |  |  |  |  |  |  |  | 47.3 | 51.8 | 61.4 | 97.2 | 167.1 | 93.4 | 173.2 | 129.8 | 423.1 |  |
| COc1ccc(NC(=O)N2CCC3(CC2)OCCN3C(=O)Nc2ccc(OC)cc2)cc1 [Compound C0151M] |  |  |  |  |  |  |  |  |  | 48.3 | 51.7 | 58.7 | 201.6 | 346.8 | 212.8 | 233.1 | 122.0 | 397.6 |  |
| COc1ccc(S(=O)(=O)N2CCSC23CCNCC3)cc1 [S-C0027] | 39.1 | 46.5 | 53.6 | 74.2 | 156.2 | 56.2 | 98.1 | 84.4 | 286.8 |  |  |  |  |  |  |  |  |  |  |
